Data from PMC11742080, “Decavanadate Compound Displays In Vitro and In Vivo Antitumor Effect on Melanoma Models” (Bioinorganic Chemistry and Applications, 2025).

Assays:
[1] = test system: B16-F10 allografted C57BL/6 mice; test: B16-F10 melanoma allograft model in mice; assay type: in vivo
Description: The syngeneic transplantation model of melanoma, developed in this study, has been widely used for preclinical testing and offers the advantages of relative ease of use, fast turnaround time, and low cost. A total of 30 male C57BL/6 strain mice were previously adapted to animal facility conditions. The design of the experiment was performed as represented in Figure S2. At the start of the experiment, the backs of the mice were shaved. The mice were divided into four groups: • i. CTR− group: negative CTR group containing 6 mice. This group was injected with a solution of PBS by the subcutaneous route in the dorsal region. • ii. CTR+ group: positive CTR group containing 8 mice. In this group, the mice were subcutaneously injected once with 10^5 B16-F10 cells in the dorsal region at the beginning of the experiment. Four mice were sacrificed after 21 days, and the other 4 mice were sacrificed at the end of the experiment after 31 days. • iii. Cotreatment (CT) group: CT group containing 8 mice. This group was subcutaneously injected with 10^5 B16-F10 cells in the dorsal region and injected simultaneously with 2.5 mg/kg of decavanadate (Mg2Na2V10O28·20H2O), subcutaneously for 21 days of the experiment. All the mice were sacrificed after 21 days. • iv. Post-treatment (PT) group: PT group containing 8 mice. This group was subcutaneously injected with 10^5 B16-F10 cells in the dorsal region. After 21 days, each mouse of this group received a dose of 2.5 mg/kg of decavanadate (Mg2Na2V10O28·20H2O), as a treatment for 10 days. For this group, animals were sacrificed on the 31st day. The experimental design scheme is illustrated in Figure S2.

[2] = test system: IGR37 human melanoma cells; test: MTT cell viability assay, IGR37; assay type: cell-based
Description: (§1) The MTT assay was first described as a sensitive, quantitative, and reliable colorimetric assay to measure the viability, proliferation, and activation of cells. Cell viability was assessed at 24 and 72 h of treatment to evaluate cytotoxicity and the effect on cell proliferation of the decavanadate compound, respectively. The concentrations of the decavanadate compound have been determined by weighing the compound in its crystal form and then solubilizing it in distilled water.
(§2) All cell lines were seeded in 96-well plates (Nunc, Roskilde, Denmark) at a density of 10^4 cells per well and were incubated overnight, before treatment with different concentrations of the decavanadate compound. After 24 or 72 h of treatment, fresh media solution containing MTT at 0.5 mg/mL was added to cells and incubated for 3 h at 37°C. The formed formazan crystals were then dissolved in DMSO, and the absorbance was measured at 560 nm using a BioTek EON Microplate Spectrophotometer (Fisher Scientific). Cell viability was expressed as a percentage of the viable cell number of the untreated cells (control [CTR]).
(§3) The concentration of the decavanadate compound required for 50% growth inhibition (IC50 value) was estimated as resulting in a 50% decrease in absorbance, compared to the CTR.

[3] = test system: HaCaT normal human keratinocytes; test: MTT cell viability assay, HaCaT; assay type: cell-based
Description: as §1, §2, §3

[4] = test system: IGR39 human melanoma cells; test: Wound healing (scratch) cell migration assay; assay type: cell-based; conditions: 24 h treatment
Description: Wound healing (or scratch) assay is a method to measure two-dimensional cell migration. An artificial gap is generated on a confluent cell monolayer, and the movement is tracked via microscopy or other imaging. Melanoma cells were seeded in 24-well plates at 15 × 10^4 cells per well and incubated for 24–48 h. After cells reached 90% confluence, wounds were generated using a 10 μL micropipette tip. Media were removed, and the cells were washed with 500 μL PBS and then incubated in a fresh medium containing different concentrations (not showing cytotoxic effect) of the decavanadate compound. After 24 h of treatment, cells were washed with PBS, fixed with cold ethanol, and stained with Giemsa. Images were acquired on an inverted microscope at T0 and after 24 h (T24). The percentage of cell migration was calculated using the following formula: cell migration(%)=[(T0 − T24))/(T0)] × 100 where T0 is the wound area at zero time and T24 is the wound area after 24 h. All the pictures were taken with a DM-IRE microscope (Leica, Rueil-Malmaison, France) coupled with a digital camera (CCD camera CoolSNAP FX, Princeton Instruments, Trenton, NJ).

[5] = test system: SKMEL28 human melanoma cells; test: MTT cell viability assay, SKMEL28; assay type: cell-based
Description: as §1, §2, §3

dimagnesium disodium decavanadate icosahydrate [Mg2Na2V10O28·20H2O]
Inhibition of tumor development ([1]; 2.5 mg/kg (50 μg), versus nontreated allografted mice): 70%
Behavior of allografted mice ([1]; cotreated, 2.5 mg/kg, compared to CTR− group): no change in the behavior
Tumor appearance at day 21 ([1]; cotreatment (CT) group, 2.5 mg/kg s.c. for 21 days): no skin changes
Skin histology, cotreated mice ([1]; cotreatment (CT) group, 2.5 mg/kg, day 21): disappearance of melanoma
Average size of the tumor ([1]; post-treatment (PT) group, 2.5 mg/kg for 10 days from day 21, day 31): 8.2 mm
Skin histology, post-treated mice ([1]; post-treatment (PT) group, 2.5 mg/kg, day 31): appearance of dermal melanoma associated with invasive nests of atypical discohesive melanocytes and dusty pigmentation
IC50 ([2]; IGR37, 24 h treatment): 12.7 µM
IC50 ([2]; IGR37, 72 h treatment): 1.4 µM
IC50, cell viability ([2]; IGR37, 72 h treatment): 2 µg/mL
Effect on viability of normal keratinocytes ([3]; 24 h treatment): little effect
IC50 ([3]; 24 h treatment, MTT): > 70.8 µM
IC50 ([3]; 72 h treatment, MTT): 8.9 µM
IC50, cell viability ([3]; 72 h treatment, MTT): 12.7 µg/mL
IC50 [4]: 2.23 µM
IC50, IGR39 cell migration [4]: 3.16 µg/mL
IC50 ([5]; SKMEL28, 24 h treatment): 10.8 µM
IC50 ([5]; SKMEL28, 72 h treatment): 4.1 µM
